The text below walks through data of patent US20030190671A1, “Use of metabolic phenotyping in individualized treatment with amonafide” (McGill University, priority 2001, published 2003).

Structures are written as SMILES. Like-named read-outs stand apart in the source and are kept apart here. Marks after values point to notes of the source that are not given here.

For one data set, the system named is Caffeine-Ab. Description: Competitive antigen ELISA, antibody specificity of caffeine-Ab. In kind it is binding, rabbit. The note with it: hypothesized ideal antibody specificity; 0 = no inhibition or no higher than 40% at 5×10^−3 M. How it is done: (§1) Competitive Antigen ELISA
(§2) BSA, antibodies, Tween™ 20 and horse radish peroxidase are added to buffers and water just prior to use. Urine samples are usually collected four hours after drinking a cup of coffee (instant or brewed with approximately 100 mg of caffeine per cup) and stored at −20° C. as 1-mL aliquots in 1.5-mL microtubes. For the ELISA, the urine samples are diluted with isotonic sodium phosphate buffer, pH 7.5 (310 mosM) to give concentrations of caffeine, 1.7-DMX and 1,7-DMU no higher than 3×10^−6 M in the microtiter plate wells. Wells of the ELISA plate are washed with a Nunc-Immuno wash 12 washer. Sixteen milliliters of a solution of 6.6 μg ml^−1 of isolated IgG antibodies is prepared in a 100 mM sodium carbonate buffer, pH 9.6, and 150 μL of this solution is pipetted in each well of a microtiter plate using a eight channel pipet (Brinkmann Transferpette™-8 50-200 μL) and 200 μL Flex tips from Brinkmann). After coating the wells with antibodies at 4° C. for 20 hours, the wells are washed 3 times with the isotonic sodium phosphate buffer containing 0.05% Tween™ 20 (IPBT) and properly drained by inverting the plate and absorbing the liquid on to a piece of paper towel. Thirty milliliters of a solution of a IPBT solution containing 1% BSA is prepared and 150 μL of this solution is pipetted in each well using a eight channel pipet (Brinkmann Transferpet-te™-8 50-200 μL) and 200 μL yellow tips (Sarstedt yellow tips for P200 Gilson Pipetman). After 3 hours at room temperature, the wells are washed 3 times with IPBT solution and drained. Samples of 400 μL for determination of caffeine, 1,7-DMX and 1,7-DMU are prepared in 1.5-mL microtubes using Sarstedt yellow tips and a P200 Gilson Pipetman. Then, 200 μL of each sample are pipetted in duplicate in a Falcon 96-well microtest tissue culture plate according to the pattern shown in FIG. 23, using Sarstedt yellow tips and a P200 Gilson Pipetman. Using an eight channel pipet (Brinkmann Transferpette™-8 50-200 μL) and changing the tips of the eight channel pipet (200 μL Flex tips from Brinkmann) at each row, 150 μL of samples are transferred in the corresponding wells of a 96-well ELISA microtiter plate coated with antibodies. After the addition of the samples, the microtiter plates are covered and left standing at room temperature for 2 h. While the plate is left standing the substrate buffer without the hydrogen peroxide and o-phenylenediamine hydrochloride is prepared (25 mM citric acid and 50 mM sodium phosphate dibasic buffer, pH 5.0). The microtiter plate is washed 3 times with the IPBT solution and 3 times with a 0.05% Tween 20 solution and drained. Then, 50 […] of hydrogen peroxide and 40 mg of o-phenylenediamine are added to the substrate buffer. One hundred fifty microliters (150 μL) of the substrate buffer solution is then added to each well using a eight channel pipet (Brinkmann Transferpette™-8 50-200 μL) and 200 μL Flex tips (Brinkmann). The microtiter plate is covered and shaken for 25-30 min at room temperature and the enzymatic reaction is stopped by adding 50 μL/well of a 2.5 N HCl solution using an eight channel pipet (Brinkmann Transferpette™-8 50-200 μL) and 200 μL Flex tips (Brinkmann).
For orientation: An ELISA detects its analyte on a solid surface through an enzyme-linked reagent.

For another data set, the system named is 1,7-DMU-Ab. Description: Competitive antigen ELISA, antibody specificity of 1,7-DMU-Ab. Format: binding, rabbit. The note with it: hypothesized ideal antibody specificity; 0 = no inhibition or no higher than 40% at 5×10^−3 M. On the procedure:
as §1, §2

Another data set concerns 1,7-DMX-Ab. Description: Competitive antigen ELISA, antibody specificity of 1,7-DMX-Ab. Format: binding, rabbit. The note with it: hypothesized ideal antibody specificity; 0 = no inhibition or no higher than 40% at 5×10^−3 M. How it is done: as §1, §2
For the next data set, the system named is AAMU-Ab. Description: Competitive antigen ELISA, cross-reactivity of AAMU-Ab. Format: binding, rabbit. The note with it: competitive antigen ELISA; 0 = absence of inhibition or inhibition no higher than 40% at the highest concentration tested (5×10^−3 M). How it is done:
as §1
(§3) Buffers and water without additives are filtered through millipore filters and kept for 1 week. BSA, antibodies, Tween™ 20 and horse radish peroxidase conjugates are added to these buffers and water just prior to use. Urine samples are usually collected 4 hours after drinking a cup of coffee (instant or brewed with approximately 100 mg of caffeine per cup) and stored at −80° C. The urine samples are diluted 10 times with sodium phosphate buffer (620 mosm, pH 7.50) and are subsequently diluted with water to give concentrations of AAMU and 1X no higher than 3×10^−6 M in the ELISA. All the pipettings are done with an eight-channel pipette, except those of the antibody and sample solutions. Starting with the last well, 100 μL of a carbonate buffer (100 mM, pH 9.6) containing 2.5 μg mL-1 antibodies are added to each well. After 90 min. at room temperature, the wells are washed three times with 100 mL of TPB: isotonic sodium phosphate buffer (310 mosm, pH 7.50) containing 0.05% Tween™ 20.
(§4) After the initial wash, unoccupied sites are blocked by incubation for 90 min. at room temperature with 100 μL TBP containing 3% BSA. The wells are washed four times with 100 […] TPB. […] The microplate is gently shaken with an orbital shaker at room temperature for 3-4 hours. The wells are washed three times with 100 μL TPB containing 1% BSA and three times with water containing 0.05% Tween™ 20. To the washed plate is added 150 μL of a substrate buffer composed of citric acid (25 mM) and sodium phosphate dibasic buffer (50 mM, pH 5.0) containing 0.06% hydrogen peroxide and 0.04% o-phenylenediamine hydrochloride.
as §3, with “were” for “are”, “They were” for “The urine samples are”, “mL^−1” for “mL-1”, “was pipetted.” for “are added to each well.”, “μL” for “mL”
(§5) After the initial wash, unoccupied sites were blocked by incubation for 90 min. at room temperature with 100 μL TBP containing 3% BSA. The wells were washed four times with 100 μL TPB. […] The microplate was gently shaken with an orbital shaker at room temperature for 3-4 hours. The wells were washed three times with 100 μL with TPB containing 1% BSA and three times with water containing 0.05% Tween™ 20. To the washed plate was added 150 μL of a substrate buffer composed of citric acid (25 mM) and sodium phosphate dibasic buffer (50 mM, pH 5.0) containing 0.06% hydrogen peroxide and 0.04% o-phenylenediamine hydrochloride. After 20 min. at room temperature with shaking, the reaction was stopped with 50 μL of 2.5 N HCl.
(§6) The cross reactivities of AAMU-Ab and 1X-Ab were tested using a wide variety of caffeine metabolites and structural analogs (Table 2 below).

The subject of the next data set is 1X-Ab. Description: Competitive antigen ELISA, cross-reactivity of 1X-Ab. In kind it is binding, rabbit. The note with it: competitive antigen ELISA; 0 = absence of inhibition or inhibition no higher than 40% at the highest concentration tested (5×10^−3 M). On the procedure: as §1, §3, §4
as §3, with “were” for “are”, “They were” for “The urine samples are”, “mL^−1” for “mL-1”, “was pipetted.” for “are added to each well.”, “μL” for “mL”
as §5, §6

The test system of a further data set is CYP2D6. The settings on record: cited from earlier work.
The conditions of data set [1]: Felder et al.; cited from earlier work.
In a further data set the target is T1, CYP1A2 (Homo sapiens, UniProt P05177).
T1 sequence (P05177 1-516): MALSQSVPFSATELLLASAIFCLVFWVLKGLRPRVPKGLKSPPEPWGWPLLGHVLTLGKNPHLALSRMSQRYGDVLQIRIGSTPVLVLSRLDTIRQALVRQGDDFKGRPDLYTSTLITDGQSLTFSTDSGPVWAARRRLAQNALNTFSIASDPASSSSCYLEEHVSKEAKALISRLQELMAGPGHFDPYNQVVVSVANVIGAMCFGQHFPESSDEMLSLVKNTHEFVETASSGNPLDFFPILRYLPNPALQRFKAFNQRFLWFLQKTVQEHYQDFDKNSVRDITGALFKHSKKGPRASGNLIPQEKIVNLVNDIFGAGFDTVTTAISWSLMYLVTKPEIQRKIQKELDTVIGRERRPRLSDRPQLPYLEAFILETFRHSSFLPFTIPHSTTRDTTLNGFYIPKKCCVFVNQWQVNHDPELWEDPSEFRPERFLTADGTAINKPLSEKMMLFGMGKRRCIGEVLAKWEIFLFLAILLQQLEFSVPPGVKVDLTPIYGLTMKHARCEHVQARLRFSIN
The note with it: in vitro; cited from earlier work.

The conditions of data set [2]: cited from earlier work.

As to `Cn1cnc2[nH]c(=O)[nH]c(=O)c21` [7-Methyl Xanthine], the “% Cross-reaction Caffeine-Ab” value with Caffeine-Ab turned out to be 0%. Besides, the “% Cross-reaction 1,7-DMU-Ab” value in the data set with 1,7-DMU-Ab is reported as 0%. Moreover, the “% Cross-reaction 1,7-DMX-Ab” value in the data set with 1,7-DMX-Ab was found to be 0%. In addition, in the data set on AAMU-Ab, the “% Cross-Reaction AAMU-Ab” value is recorded as 0%. Further, in the data set with 1X-Ab, the “% Cross-Reaction 1X-Ab” value stood at 0%.

Consider `Cc1nc2[nH]c(=O)[nH]c(=O)c2[nH]1` [8-Methyl Xanthine], for which the “% Cross-reaction Caffeine-Ab” value in the data set with Caffeine-Ab was determined as 0%. Besides, in the data set on 1,7-DMU-Ab, the “% Cross-reaction 1,7-DMU-Ab” value turned out to be 0%. The “% Cross-reaction 1,7-DMX-Ab” value in the data set on 1,7-DMX-Ab came out at 0%. In addition, the “% Cross-Reaction AAMU-Ab” value in the data set on AAMU-Ab is recorded as 0%. Also, the “% Cross-Reaction 1X-Ab” value in the data set on 1X-Ab is on record as 0%.

As for `COc1ccc2c(c1)[C@]13CCCC[C@@H]1[C@H](C2)N(C)CC3` [Dextromethorphan], the “mean performance +/−SE” value in the data set on CYP2D6 (extensive metabolizers (EMs), p<0.05 vs PMs) was 95+/−0.5%; in the data set on CYP2D6 (poor metabolizers (PMs), p<0.05 vs EMs) it was 86+/−6%.

`Nc1nc2nc[nH]c2c(=O)[nH]1` [Guanine]: in the data set with Caffeine-Ab, the “% Cross-reaction Caffeine-Ab” value came to 0%. In addition, in the data set on 1,7-DMU-Ab, the “% Cross-reaction 1,7-DMU-Ab” value is 0%. Further, the “% Cross-reaction 1,7-DMX-Ab” value in the data set with 1,7-DMX-Ab turned out to be 0%. Also, the “% Cross-Reaction AAMU-Ab” value in the data set on AAMU-Ab is 0%. The “% Cross-Reaction 1X-Ab” value in the data set on 1X-Ab was found to be 0%.

For `O=c1[nH]cnc2nc[nH]c12` [Hypoxanthine], the “% Cross-reaction Caffeine-Ab” value in the data set on Caffeine-Ab came to 0%. In addition, in the data set with 1,7-DMU-Ab, the “% Cross-reaction 1,7-DMU-Ab” value came to 0%. Further, the “% Cross-reaction 1,7-DMX-Ab” value with 1,7-DMX-Ab was 0%. The “% Cross-Reaction AAMU-Ab” value in the data set with AAMU-Ab was 0%. Also, the “% Cross-Reaction 1X-Ab” value in the data set with 1X-Ab was 0%.

For `CC(=O)Nc1cc2c3c(cccc3c1)C(=O)N(CCN(C)C)C2=O` [N-acetyl-amonafide], in data set [1], the “potency relative to the parent drug amonafide” value is recorded as “approximately equipotent to the parent drug”. The “effect on amonafide oxidation (CYP1A2)” value on CYP1A2 is given as “inhibition of amonafide oxidation”.

With `C[N+](C)([O-])CCN1C(=O)c2cccc3cc(N)cc(c23)C1=O` [N-oxide-amonafide], in data set [1], the “potency relative to the parent drug amonafide” value is “essentially inactive”.

As to `O=c1cc[nH]c(=O)[nH]1` [Uracil], in the data set on Caffeine-Ab, the “% Cross-reaction Caffeine-Ab” value is reported as 0%. Also, in the data set on 1,7-DMU-Ab, the “% Cross-reaction 1,7-DMU-Ab” value is recorded as 0%. The “% Cross-reaction 1,7-DMX-Ab” value in the data set on 1,7-DMX-Ab worked out at 0%. Also, the “% Cross-Reaction AAMU-Ab” value in the data set on AAMU-Ab is listed as 0%. In addition, in the data set with 1X-Ab, the “% Cross-Reaction 1X-Ab” value is on record as 0%.

With `O=c1[nH]c(=O)c2[nH]c(=O)[nH]c2[nH]1` [Uric acid], in the data set with Caffeine-Ab, the “% Cross-reaction Caffeine-Ab” value turned out to be 0%. In the data set with 1,7-DMU-Ab, the “% Cross-reaction 1,7-DMU-Ab” value came out at 0%. Also, the “% Cross-reaction 1,7-DMX-Ab” value with 1,7-DMX-Ab is given as 0%. The “% Cross-Reaction AAMU-Ab” value in the data set with AAMU-Ab is 0%. Besides, in the data set on 1X-Ab, the “% Cross-Reaction 1X-Ab” value amounted to 0%.

`O=c1[nH]c(=O)c2[nH]cnc2[nH]1` [Xanthine]: the “% Cross-reaction Caffeine-Ab” value in the data set with Caffeine-Ab is listed as 0%. Moreover, the “% Cross-reaction 1,7-DMU-Ab” value in the data set with 1,7-DMU-Ab is listed as 0%. The “% Cross-reaction 1,7-DMX-Ab” value in the data set on 1,7-DMX-Ab was 0%. For the same compound, the “% Cross-Reaction AAMU-Ab” value in the data set on AAMU-Ab is 0^a %. In the data set on 1X-Ab, the “% Cross-Reaction 1X-Ab” value was found to be 0%.

Consider `Nc1ccc(S(=O)(=O)c2ccc(N)cc2)cc1` [dapsone], for which the values for the adverse reactions in [2] (fast acetylators) and in data set [2] (slow acetylators) were 17% and 46%, respectively.
